According to patent EP0326331B1, “Substituted quinolines and cinnolines” (Dow AgroSciences LLC, priority 1988, dated 1989):
Read-outs that look alike come from different tables or passages of the source.

What was measured:
Format in all cases: in vivo
[1] = test system: Pseudoperonospora cubensis (downy mildew); experiment: Test 1 greenhouse foliar spray screen, downy mildew on squash; conditions: disease control rating, foliar spray on squash, 400 ppm (+++ at 100 ppm)
[2] = test system: Erysiphe graminis tritici (powdery mildew); experiment: Test 1 greenhouse foliar spray screen, powdery mildew on wheat; conditions: for POWD MDEW: disease control rating, foliar spray on wheat, 400 ppm (+++ at 100 ppm)
[3] = test system: Puccinia recondita tritici (leaf rust); experiment: Test 1 greenhouse foliar spray screen, leaf rust on wheat; conditions: for LEAF RUST: disease control rating, foliar spray on wheat, 400 ppm (+++ at 100 ppm)
[4] = test system: melon aphids (Aphis gossypii Glover); experiment: Mite/insect screen, MA; conditions: Aphis gossypii, percent mortality, read-out: MA RESULTS %
Procedure: (§1) The compounds of Examples 1-295 were tested for miticidal and insecticidal activity in the following mite/insect screen.
(§2) Each test compound was formulated by dissolving the compound in acetone/alcohol (50:50) mixture containing 23 g of "TOXIMUL R" (sulfonate/nonionic emulsifier blend) and 13 g of "TOXIMUL S" (sulfonate/nonionic emulsifier blend) per liter. These mixtures were then diluted with water to give the indicated concentrations.
(§3) Other plants in the same treatment pot were left uninfested. The leaves were then sprayed with 5 ml of test solution using a DeVilbiss atomizing sprayer at 10 psi. Both surfaces of the leaves were covered until runoff, and then allowed to dry for one hour. Two uninfested leaves were then excised and placed into a Petri dish containing southern armyworm (Spodopetra eridania Cramer).
(§4) After standard exposure periods, percent mortality was evaluated. […]

[5] = test system: Pyricularia oryzae (rice blast); experiment: whole plant or invertebrate; conditions: for RICE BLAST: disease control rating, foliar spray on rice, 400 ppm (+++ at 100 ppm)
[6] = test system: corn rootworm; experiment: Mite/insect screen, CRW; conditions: percent mortality, read-out: CRW RESULTS %
Procedure: as §1, §2, §4

[7] = test system: Twospotted spider mites (Tetranychus urticae Koch); experiment: Mite/insect screen, SM; conditions: Tetranychus urticae, percent mortality, read-out: SM RESULTS %
Procedure: as §1, §2, §3, §4

[8] = test system: southern armyworm (Spodopetra eridania Cramer); experiment: Mite/insect screen, SAW; conditions: Spodoptera eridania, percent mortality, read-out: SAW RESULTS %
Procedure: as §1, §2, §3, §4

[9] = test system: Botrytis cinerea (gray mold); experiment: Test 1 greenhouse foliar spray screen, gray mold on grape berries; conditions: for GRAY MOLD: disease control rating, spray on grape berries, 400 ppm (+++ at 100 ppm)
[10] = foliar, rate 200 ppm, foliar spray on squash
[11] = foliar, rate 400 ppm, foliar spray on squash

SMILES | DOWN MDEW [1] | POWD MDEW [2] | LEAF RUST [3] | mortality at 200 ppm ([4]; SAW, SM & MA RATE 200 PPM) [%] | mortality at 400 ppm ([4]; SAW, SM & MA RATE 400 PPM) [%] | RICE BLAST [5] | mortality at 12 ppm ([6]; CRW RATE 12.00 PPM) [%] | mortality at 24 ppm ([6]; CRW RATE 24.00 PPM) [%] | mortality at 200 ppm ([7]; SAW, SM & MA RATE 200 PPM) [%] | mortality at 400 ppm ([7]; SAW, SM & MA RATE 400 PPM) [%] | mortality at 200 ppm ([8]; SAW, SM & MA RATE 200 PPM) [%] | mortality at 400 ppm ([8]; SAW, SM & MA RATE 400 PPM) [%] | GRAY MOLD [9] | further results
Clc1ccc2c(NCCc3cccc(Oc4ccccc4)c3)ccnc2c1 [Example 60, 7-chloro-N-[2-(3-phenoxyphenyl)ethyl]-4-quinolinamine] | +++ (90-100% control at 100 ppm) | ++ (90-100% control at 400 ppm) | ++ (90-100% control at 400 ppm) | 0 | 0 | +++ (90-100% control at 100 ppm) | 0 | 0 | 0 | 0 | 0 | 0 | - (0-19% control at 400 ppm) | 
Cc1cccc2c(NCCc3ccc(Cl)cc3)ccnc12 [Example 61, 8-methyl-N-[2-(4-chlorophenyl)ethyl]-4-quinolinamine] | +++ (90-100% control at 100 ppm) | - (0-19% control at 400 ppm) | ++ (90-100% control at 400 ppm) | 0 | 0 | ++ (90-100% control at 400 ppm) | 0 | 0 | 0 | 0 | 0 | 0 | - (0-19% control at 400 ppm) | 
Fc1cccc2c(NCCc3ccccc3Oc3ccccc3)ccnc12 [Example 63, 8-fluoro-N-[2-(2-phenoxyphenyl)ethyl]-4-quinolinamine] | ++ (90-100% control at 400 ppm) | - (0-19% control at 400 ppm) | +++ (90-100% control at 100 ppm) |  | 0 | + (20-89% control at 400 ppm) |  | 0 |  | 0 |  | 0 | - (0-19% control at 400 ppm) | 
Cc1ccc2c(NCCc3ccccc3Oc3ccccc3)ccnc2c1C [Example 64, 7,8-dimethyl-N-[2-(2-phenoxyphenyl)ethyl]-4-quinolinamine] | +++ (90-100% control at 100 ppm) | + (20-89% control at 400 ppm) | + (20-89% control at 400 ppm) | 0 | 0 | - (0-19% control at 400 ppm) | 0 | 0 | 0 | 0 | 60 | 0 | - (0-19% control at 400 ppm) | 
Clc1ccc(CCNc2ccnc3c(Cl)cccc23)cc1 [Example 85, 8-chloro-N-[2-(4-chlorophenyl)ethyl]-4-quinolinamine] | - (0-19% control at 400 ppm) | - (0-19% control at 400 ppm) | + (20-89% control at 400 ppm) | 0 | 0 | - (0-19% control at 400 ppm) | 0 | 0 | 0 | 0 | 0 | 0 | - (0-19% control at 400 ppm) | 
[O-][S+](CCc1ccccc1)c1ccnc2c(F)cccc12 (stereo not shown) [Example 264, 8-fluoro-4-[(2-phenylethyl)sulfinyl]quinoline] |  |  |  |  |  |  |  |  |  |  |  |  |  | pest or weed control at 400 ppm ([2]; Blumeria graminis, foliar, Test 1, foliar spray on wheat, disease control rating at 400 ppm / 100 ppm, read-out: POWD MDEW): 0 to 19%; pest or weed control at 400 ppm ([3]; Puccinia recondita, foliar, Test 1, foliar spray on wheat, disease control rating at 400 ppm / 100 ppm): 20 to 89%; mortality at 200 ppm [4, 10]: 0%; mortality at 400 ppm [4, 11]: 0%; pest or weed control at 400 ppm ([5]; Pyricularia oryzae, foliar, read-out: RICE BLAST, Test 1, foliar spray on rice, disease control rating at 400 ppm / 100 ppm): 0 to 19%; mortality at 12 ppm ([6]; CRW rate 12.00 ppm): 0%; mortality at 24 ppm ([6]; CRW rate 24.00 ppm): 0%; mortality at 200 ppm [7, 10]: 0%; mortality at 400 ppm [7, 11]: 0%; mortality at 200 ppm [8, 10]: 0%; mortality at 400 ppm [8, 11]: 0%; pest or weed control at 400 ppm ([9]; Botrytis cinerea, foliar, Test 1, spray on grape berries, disease control rating at 400 ppm / 100 ppm): 0 to 19%
